Laboratory results as given in US12673052B2, “Combinations for the treatment of cancer” (Exelixis, Inc., priority 2020, dated 2026).

Columns and labels:
CYP3A4 = test: Cytochrome P450 induction (mRNA levels) in fresh primary human hepatocytes; assay type: in vitro ADME
AXL = AXL (Homo sapiens, UniProt P30530); test: Kinase catalytic activity assay, radioactive assay platform; assay type: biochemical; details: 10 μM ATP
Procedure: (§1) Compound 1 inhibitory activity was evaluated in multiple kinase catalytic activity assays using a radioactive assay platform. […] All in vitro biochemical assays were performed at 10 μM ATP concentrations.

MET [1] = target: T1, MET (Homo sapiens, UniProt P08581); test: as above; assay type: biochemical; details: 10 μM ATP
T1 sequence (P08581 25-1390): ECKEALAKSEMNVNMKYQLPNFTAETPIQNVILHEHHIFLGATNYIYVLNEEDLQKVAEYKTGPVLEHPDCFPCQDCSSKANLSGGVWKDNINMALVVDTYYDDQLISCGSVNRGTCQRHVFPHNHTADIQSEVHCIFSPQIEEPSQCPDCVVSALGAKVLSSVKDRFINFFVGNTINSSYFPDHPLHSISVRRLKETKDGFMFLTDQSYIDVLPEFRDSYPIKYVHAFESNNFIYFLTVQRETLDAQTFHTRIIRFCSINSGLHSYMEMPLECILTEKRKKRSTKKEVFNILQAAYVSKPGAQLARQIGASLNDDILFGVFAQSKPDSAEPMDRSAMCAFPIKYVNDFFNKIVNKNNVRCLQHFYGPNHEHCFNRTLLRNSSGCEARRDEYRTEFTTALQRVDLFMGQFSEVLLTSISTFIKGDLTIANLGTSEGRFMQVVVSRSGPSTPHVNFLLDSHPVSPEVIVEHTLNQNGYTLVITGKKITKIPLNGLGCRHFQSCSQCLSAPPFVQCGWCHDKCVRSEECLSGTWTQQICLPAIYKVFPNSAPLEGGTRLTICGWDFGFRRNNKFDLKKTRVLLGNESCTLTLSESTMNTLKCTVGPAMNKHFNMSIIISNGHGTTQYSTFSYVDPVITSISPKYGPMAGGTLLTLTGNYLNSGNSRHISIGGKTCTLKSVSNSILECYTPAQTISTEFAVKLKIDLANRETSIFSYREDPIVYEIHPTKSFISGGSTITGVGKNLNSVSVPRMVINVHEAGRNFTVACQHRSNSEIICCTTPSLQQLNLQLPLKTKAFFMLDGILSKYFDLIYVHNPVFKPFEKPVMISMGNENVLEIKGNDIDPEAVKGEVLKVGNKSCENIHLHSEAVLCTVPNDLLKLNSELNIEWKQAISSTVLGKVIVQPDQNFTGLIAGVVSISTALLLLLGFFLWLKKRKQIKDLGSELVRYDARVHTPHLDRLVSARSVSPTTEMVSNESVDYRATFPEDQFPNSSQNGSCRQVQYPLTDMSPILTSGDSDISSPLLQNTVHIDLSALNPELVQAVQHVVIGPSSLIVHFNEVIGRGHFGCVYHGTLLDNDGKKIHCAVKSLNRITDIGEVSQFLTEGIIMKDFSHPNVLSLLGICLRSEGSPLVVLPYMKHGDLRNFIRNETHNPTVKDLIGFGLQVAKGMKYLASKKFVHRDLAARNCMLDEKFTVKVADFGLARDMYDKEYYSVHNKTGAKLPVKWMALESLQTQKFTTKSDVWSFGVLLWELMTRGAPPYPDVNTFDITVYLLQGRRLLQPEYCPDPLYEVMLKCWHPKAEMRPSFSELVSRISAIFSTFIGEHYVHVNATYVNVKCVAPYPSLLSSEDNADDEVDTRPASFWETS
Procedure: as §1

MER = MER (Homo sapiens, UniProt Q12866); test: as above; assay type: biochemical; details: 10 μM ATP
Chain of MER (Q12866 21-999): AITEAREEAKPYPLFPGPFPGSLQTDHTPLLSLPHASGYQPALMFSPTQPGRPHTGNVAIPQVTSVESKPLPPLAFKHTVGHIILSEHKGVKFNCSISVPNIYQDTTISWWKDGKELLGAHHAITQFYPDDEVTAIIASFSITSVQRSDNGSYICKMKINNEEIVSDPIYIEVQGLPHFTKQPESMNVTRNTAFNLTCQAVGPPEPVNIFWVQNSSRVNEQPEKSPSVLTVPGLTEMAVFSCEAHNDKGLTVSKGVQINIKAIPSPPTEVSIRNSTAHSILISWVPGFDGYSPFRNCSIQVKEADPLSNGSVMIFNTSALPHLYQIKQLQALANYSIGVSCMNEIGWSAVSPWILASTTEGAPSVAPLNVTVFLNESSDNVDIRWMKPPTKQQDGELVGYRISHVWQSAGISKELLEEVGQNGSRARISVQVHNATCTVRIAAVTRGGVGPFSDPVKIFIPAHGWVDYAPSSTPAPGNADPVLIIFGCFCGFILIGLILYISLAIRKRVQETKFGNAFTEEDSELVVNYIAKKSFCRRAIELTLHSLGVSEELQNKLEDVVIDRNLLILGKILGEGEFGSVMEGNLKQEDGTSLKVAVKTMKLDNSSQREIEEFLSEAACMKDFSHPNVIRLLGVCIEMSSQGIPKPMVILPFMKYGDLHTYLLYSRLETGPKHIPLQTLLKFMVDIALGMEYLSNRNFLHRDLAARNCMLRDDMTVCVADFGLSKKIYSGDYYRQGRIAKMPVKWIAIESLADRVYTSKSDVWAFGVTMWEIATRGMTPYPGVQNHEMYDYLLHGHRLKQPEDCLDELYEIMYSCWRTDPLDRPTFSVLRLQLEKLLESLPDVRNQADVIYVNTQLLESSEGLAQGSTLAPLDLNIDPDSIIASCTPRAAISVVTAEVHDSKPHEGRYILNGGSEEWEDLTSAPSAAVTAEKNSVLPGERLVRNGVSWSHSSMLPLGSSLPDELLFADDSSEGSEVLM
Procedure: as §1

VEGFR2 = VEGFR2 (Homo sapiens, UniProt P35968); test: as above; assay type: biochemical; details: 10 μM ATP
Procedure: as §1

hERG channel = hERG channel (Homo sapiens, UniProt Q12809); test: In vitro hERG channel inhibition; assay type: cell-based
Chain of hERG channel (Q12809 whole entry): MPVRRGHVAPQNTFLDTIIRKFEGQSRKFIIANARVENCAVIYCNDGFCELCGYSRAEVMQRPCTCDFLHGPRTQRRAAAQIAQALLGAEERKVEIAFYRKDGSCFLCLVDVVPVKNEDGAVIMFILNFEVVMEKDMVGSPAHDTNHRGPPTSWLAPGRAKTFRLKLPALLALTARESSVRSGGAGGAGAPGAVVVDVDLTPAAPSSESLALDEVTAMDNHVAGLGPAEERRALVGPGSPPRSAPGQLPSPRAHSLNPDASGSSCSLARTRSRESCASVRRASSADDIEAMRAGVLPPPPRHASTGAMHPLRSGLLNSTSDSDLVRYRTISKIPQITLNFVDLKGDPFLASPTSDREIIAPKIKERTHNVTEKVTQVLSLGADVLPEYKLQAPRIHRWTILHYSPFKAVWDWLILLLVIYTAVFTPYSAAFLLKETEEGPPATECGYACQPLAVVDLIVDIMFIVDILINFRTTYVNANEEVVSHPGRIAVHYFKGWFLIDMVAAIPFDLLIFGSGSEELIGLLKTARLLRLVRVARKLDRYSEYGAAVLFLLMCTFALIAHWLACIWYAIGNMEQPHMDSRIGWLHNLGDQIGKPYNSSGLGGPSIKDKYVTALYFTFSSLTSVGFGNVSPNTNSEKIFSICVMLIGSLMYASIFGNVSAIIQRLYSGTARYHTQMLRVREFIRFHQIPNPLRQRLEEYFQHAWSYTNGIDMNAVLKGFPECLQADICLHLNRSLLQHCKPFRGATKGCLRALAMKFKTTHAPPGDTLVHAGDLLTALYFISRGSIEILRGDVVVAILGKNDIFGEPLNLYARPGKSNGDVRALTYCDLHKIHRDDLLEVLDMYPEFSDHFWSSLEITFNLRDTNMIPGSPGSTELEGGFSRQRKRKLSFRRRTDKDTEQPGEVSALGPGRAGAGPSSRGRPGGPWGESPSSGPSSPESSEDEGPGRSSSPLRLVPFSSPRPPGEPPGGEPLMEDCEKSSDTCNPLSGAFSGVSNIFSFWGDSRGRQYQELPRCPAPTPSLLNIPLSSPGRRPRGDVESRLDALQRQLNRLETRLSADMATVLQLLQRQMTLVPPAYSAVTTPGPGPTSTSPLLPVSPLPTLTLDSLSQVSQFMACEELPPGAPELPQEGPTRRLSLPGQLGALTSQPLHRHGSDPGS

MET [2] = target: T1, MET; test: In vivo target modulation: MET phosphorylation by Western blot in SNU-5 xenografts; design: endogenous in cells; host or cells: SNU-5 human tumour xenografts in CB.17 SCID mice; species or system CB.17 SCID mice; details: for Compound 1 Plasma Exposure: qd × 14, 4 hours after last dose on Day 14
Procedure: (§2) Three human tumor cell lines, NCI-H441, MDA-MB-231, and SNU-5, were selected for use in tumor xenograft studies using athymic nude, NSG and CB.17 SCID mice, respectively. Pharmacodynamic modulation of MET phosphorylation was also measured in the NCI-H441 and SNU-5 xenografts. Tumor-bearing mice were orally dosed once-daily for 14 days (qd×14), and the tumors were resected and processed for MET phosphorylation analysis by Western blot. […]

CYP2C8 = test: Cytochrome P450 induction (mRNA levels) in fresh primary human hepatocytes; assay type: in vitro ADME
NCI-H441 = test: Tumor growth inhibition in xenograft model; assay type: in vivo, athymic nude mice
Procedure: as §2

[3] = Projection of human PK and steady-state exposure based on one species (rat)
Procedure: The mean plasma t1/2, z values were approximately 9 hours in rats and 4 hours in dogs. Interspecies scaling based on body weight to predict PK parameters in humans could not be performed because dogs (larger species) cleared Compound 1 faster than rats (smaller species). Therefore, the human PK was projected based on one species (rat). […] This apparent clearance value (CL/F) was used to predict steady-state exposure (AUC and average plasma concentration [Cavg]) in humans for the proposed first-in-human (FIH) starting dose for Study Compound 1-001.
The steady-state exposure of Compound 1 in humans for the proposed clinical starting dose of 10 mg daily was projected. At this dose, Compound 1 is projected to yield exposures 54-fold lower than those at the highest non-severely toxic dose (HNSTD) in rats (10 mg/kg qd), the highest dose tested in the GLP 4-week toxicity study. […] Compound 1-related findings at the 10 mg/kg/day dose included bile duct inflammation, hyperplasia and individual hepatocyte necrosis (generally minimal-mild) which were fully reversible following 14 days recovery, as were correlative <2-fold aspartate aminotransferase (AST) and <5-fold alanine aminotransferase (ALT) increases.

[4] = system: CT26 colon carcinoma cells; test: Efficacy after oral dosing in CT26 tumor bearing female Balb/c mice; assay type: in vivo
Source text: In this study, the inhibitory effects of Compound 1 as a single agent and in combination with an anti-PD-1 inhibitor in Balb/c mice grafted with CT26 colon carcinoma cells were studied. CT26 cells inoculated into syngeneic mice are highly tumorigenic (Brattain et al. 1980) and share molecular features with undifferentiated, invasive human colorectal carcinoma cells (Castle et al. 2014). Therefore, the CT26 cell line can serve as a valid cellular model for the metastatic and poorly differentiated human colorectal cancer. Moreover, this model has been reported to express significant levels of RTKs, indicating a potential reliance on these signaling pathway for the maintenance of a tumorigenic phenotype in vivo (Pryzybyszewska et al. 2017).
CT26 colon carcinoma cells (ATCC, CRL-2638) were thawed from the Exelixis pharmacology cell bank into T-75 flasks (Corning, 43064U) using fresh culture medium, ie, RPMI-1640 containing 10% fetal bovine serum (GIBCO, A384002). […]
Oral doses were administered via a […], 1.5″ stainless steel needle with silicone tip (VWR, 20068-666). […] Survival was monitored for a maximum of 40 days. […]
All animals were measured twice a week for tumor volume and body weight using Studylog software.
Significance values represent differences in comparison to vehicle or anti-PD-1 treatment groups and were determined using a nonparametric Mann-Whitney U-test. […]

bacterial = test: In vitro bacterial genotoxicity bioassay; assay type: cell-based
Procedure: The nonclinical toxicity of Compound 1 was characterized in dose range-finding 7-day and definitive 28-day repeat-dose studies in rats and dogs, and in in vitro bacterial and mammalian genotoxicity bioassays. Compound 1 was also evaluated in definitive neurobehavioral, respiratory and cardiovascular safety pharmacology studies.
Compound 1 was negative in in vitro bacterial and mammalian cell genotoxicity bioassays.

[5] = human, fresh primary human hepatocytes, mRNA induction, read-out: half-maximal effective concentration (EC50)
[6] = SNU-5, mouse, po, read-out: p-MET Inhibition %

Chain of AXL (P30530 26-894): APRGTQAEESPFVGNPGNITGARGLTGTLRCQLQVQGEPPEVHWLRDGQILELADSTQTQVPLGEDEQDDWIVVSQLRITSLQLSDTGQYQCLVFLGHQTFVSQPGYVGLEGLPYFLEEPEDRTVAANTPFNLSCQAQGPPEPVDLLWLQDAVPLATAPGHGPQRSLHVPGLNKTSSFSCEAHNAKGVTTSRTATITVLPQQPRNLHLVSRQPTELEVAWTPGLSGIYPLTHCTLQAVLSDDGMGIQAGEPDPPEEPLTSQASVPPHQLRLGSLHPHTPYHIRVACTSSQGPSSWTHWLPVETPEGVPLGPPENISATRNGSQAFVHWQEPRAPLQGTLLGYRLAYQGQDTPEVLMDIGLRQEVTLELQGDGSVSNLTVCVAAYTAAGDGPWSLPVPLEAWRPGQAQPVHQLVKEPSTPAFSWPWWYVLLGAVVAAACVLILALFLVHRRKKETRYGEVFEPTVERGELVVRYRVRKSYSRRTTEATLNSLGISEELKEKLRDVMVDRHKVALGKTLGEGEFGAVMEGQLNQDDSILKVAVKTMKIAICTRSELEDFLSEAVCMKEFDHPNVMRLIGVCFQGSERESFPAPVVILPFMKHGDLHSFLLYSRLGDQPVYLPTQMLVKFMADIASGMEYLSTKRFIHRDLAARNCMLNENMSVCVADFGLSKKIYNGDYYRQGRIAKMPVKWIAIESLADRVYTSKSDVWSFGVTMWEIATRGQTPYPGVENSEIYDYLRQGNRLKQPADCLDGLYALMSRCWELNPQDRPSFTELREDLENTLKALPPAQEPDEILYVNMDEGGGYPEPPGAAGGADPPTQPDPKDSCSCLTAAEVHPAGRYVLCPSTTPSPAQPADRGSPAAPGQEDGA

## CNC(=O)c1cc2c(Oc3ccc(NC(=O)C4(C(=O)Nc5ccc(F)cc5)CC4)cc3)ccnc2cc1OC [Compound 1, 1-N′-(4-Fluorophenvl)-1-N-[4-[7-methoxy-6-(methylcarbamovl)quinolin-4-yl]oxyphenyl]cyclopropane-1,1-dicarboxamide]
CYP3A4; [5]
  EC50: 2980 nM
CYP3A4; mRNA, 0.1-100 μM
  maximal induction effect (Emax): 24 fold
AXL
  IC50: 5.8 nM
MET [1]
  IC50: 3 nM
MER
  IC50: 0.6 nM
VEGFR2
  IC50: 15 nM
hERG channel
  IC50: ~4000 nM
MET [2]; 3 mg/kg
  Compound 1 Plasma Exposure: 1.88 µM
MET [2]; 10 mg/kg
  Compound 1 Plasma Exposure: 7.64 µM
MET [2]; [6]
  inhibition at 3 mg/kg: 26%
  inhibition at 10 mg/kg: 67%
CYP2C8; [5]
  EC50: 2010 nM
CYP2C8; mRNA, 0.1-100 μM
  maximal induction effect (Emax): 7 fold
NCI-H441; 3 mg/kg qd × 14 oral, p-value 0.0115
  TGI (%): 63.3%
NCI-H441; 10 mg/kg qd × 14 oral, p-value <0.0001
  TGI (%): regression
[3]; assuming rat CL=23.4 mL/hr/kg and F=70%
  projected apparent CL (CL/F) after oral administration in human: 0.557 mL/min/kg
[3]; for a 70-kg human
  projected apparent CL (CL/F) after oral administration in human: 2338 mL/h
[3]; proposed clinical starting dose of 10 mg daily vs 10 mg/kg qd in rats
  projected human exposure lower than exposure at HNSTD in rats: 54 fold
[4]; 40-day dosing, P<0.0001 Compound 1 vs vehicle, P<0.0001 combination vs aPD-1 alone, P<0.05 combination vs Compound 1
  survival (Kaplan Meier): Survival benefit and dose response
[4]; single agent 1, 3, 10, and 30 mg/kg/day for 40 days
  tumor growth: tumor growth delay
bacterial
  genotoxicity: negative
